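Briefly, cells in 96-well plates were exposed to five compound concentrations for 48 h, and endpoints were estimated by linear interpolation. TGI: total growth inhibition.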
Tests used:
Test in all cases: inhibition of tumour cell growth, NCI panel, 48 h
UACC-62 melanoma = test system: UACC-62 melanoma
SW-620 colon = test system: SW-620 colon
OVCAR-4 ovarian = test system: OVCAR-4 ovarian
HOP-92 NSCLC = test system: HOP-92 NSCLC
KM12 colon = test system: KM12 colon
786-0 renal = test system: 786-0 renal
NCI-H226 lung = test system: NCI-H226 lung
SK-MEL-28 melanoma = test system: SK-MEL-28 melanoma
HS 578T breast = test system: HS 578T breast
MOLT-4 leukemia = test system: MOLT-4 leukemia
OVCAR-5 ovarian = test system: OVCAR-5 ovarian
SK-MEL-5 melanoma = test system: SK-MEL-5 melanoma
DU-145 prostate = test system: DU-145 prostate

Compound | TGI (UACC-62 melanoma) [µM] | TGI (SW-620 colon) [µM] | TGI (OVCAR-4 ovarian) [µM] | TGI (HOP-92 NSCLC) [µM] | TGI (KM12 colon) [µM] | TGI (786-0 renal) [µM] | TGI (NCI-H226 lung) [µM] | TGI (SK-MEL-28 melanoma) [µM] | TGI (HS 578T breast) [µM] | TGI (MOLT-4 leukemia) [µM] | TGI (OVCAR-5 ovarian) [µM] | TGI (SK-MEL-5 melanoma) [µM] | TGI (DU-145 prostate) [µM]
Cc1ccc(NC(=O)c2cc(S(=O)(=O)Nc3n[nH]c(=O)[nH]3)c(SSc3cc(Cl)c(C(=O)Nc4ccc(C)cc4)cc3S(=O)(=O)Nc3n[nH]c(=O)[nH]3)cc2Cl)cc1 | > 100 | > 100 | > 100 | > 100 | > 100 | > 100 | > 100 | > 100 | > 100 | > 100 | > 100 | > 100 | 
CC1=C(O)C2=C(C(=O)C1=O)[C@@H](C)CC[C@@H]2[C@@H](C)C/C=C/C(C)(C)O | > 100 | > 100 |  |  | > 100 | > 100 | > 100 |  | > 100 | 93.2 | > 100 | > 100 | > 100
COc1ccc(/C=N/n2c(C)n[nH]c2=O)c(OC)c1 | > 100 | > 100 | > 100 |  | > 100 | > 100 | > 100 | > 100 | 9.01 | > 100 | > 100 |  | > 100
COC(=O)c1c(C)n([O-])c2cc(Cl)c(Cl)cc2[n+]1=O | 40.3 | > 100 | 52.5 |  | 33.1 | > 100 |  | 92.1 | 65.6 | 84.5 | > 100 | 23.4 | 38.4
Nc1ccc2c(c1)nc1n2C(c2c(F)cccc2F)SC1 (stereo unspecified) | > 100 | > 100 | > 100 |  | > 100 | > 100 |  | > 100 | > 100 | > 100 | > 100 | > 100 | > 100
CCOC(=O)C1(F)S(=O)(=O)OCCOS1(=O)=O | > 100 | > 100 | > 100 |  | > 100 | > 100 | > 100 | > 100 | > 100 | > 100 | > 100 | > 100 | > 100
CC(=O)C1=CN=C2C(=O)N(c3ccccc3)N(C)C12C (stereo unspecified) | > 100 | > 100 | > 100 | > 100 | 46.8 | > 100 | > 100 |  |  | > 100 | > 100 | > 100 | > 100
CCOC(=O)NNC(=O)NCc1cccc(CNC(=O)NNC(=O)OCC)c1 | > 100 | > 100 | > 100 |  | > 100 | > 100 | > 100 | > 100 | > 100 | > 100 | > 100 | > 100 | > 100
O=C(CCC1C(=O)NC(=S)NC1=O)c1ccc2ccccc2c1 | > 100 | > 100 | > 100 | > 100 | > 100 | > 100 | > 100 | > 100 |  | > 100 | > 100 | > 100 | 

Reference: PubChem BioAssay (NCI)
